Results: patent EP2646421B1, “7-NITRO-5-PHENYL-1-(PYRROLIDIN-1-YLMETHYL)-1H-BENZO[E][1,4]DIAZEPIN-2(3H)-ONE AND OTHER BENZODIAZEPINE DERIVATIVES” (Pignataro, Giuseppe, priority 2010, dated 2012)

Assays:
NCX1 N124G = target: T1, NCX1 N124G (Canis lupus familiaris, UniProt P23685, N157G); assay: NCX1 point mutant activity (45Ca2+ uptake and Fura-2); format: cell-based; conditions: single mutation, functional exchanger
T1 construct: expressed in transfected cells
Protocol: (§1) To identify the critical residues involved in drug sensitivity between NCX1 and NCX3 proteins, each residue in NCX1, in the regions α1 and α2, was substituted with the corresponding residue in NCX3.
(§2) All experiments aimed to identify the binding site of neurounina-1 were performed on BHK cells stably transfected with a single NCX chimera or mutant.
(§3) The activity of the Na^+/Ca^2+ exchanger was measured by means of ^45Ca^2+ radiotracer variations in the cytoplasm of cells exposed to a protocol stimulating the forward or the reverse mode of the antiporter. The BHK cells expressing each mutated or non-mutated NCX isoform were cultured in 12-well dishes and incubated in 145 mM NaCl for 10 minutes and then in a medium containing only 145 mM N-Methyl D-glucamine (NMDG) and 10 µM of ^45Ca^2+. This rapid substitution of the medium from a high level of Na^+ to another one without Na^+ allow the ^45Ca^2+ influx (reverse mode). Before the medium substitution cells was incubated with 1 mM ouabain, a Na^+/K^+ pump inhibitor, and 10 µM monensin, a ionophore for extracellular Na^+. […] The medium was removed and cells were subsequently lysed with 0.1 N NaOH and aliquots were taken to determine radioactivity and protein content.
(§4) Briefly, BHK cells wild type and/or BHK trasnsfected with NCX mutants, grown on glass coverslips, were loaded with Fura-2 acetoxymethyl ester (Fura-2AM) (10 µM) for 30 minutes at 37°C in normal Krebs solution containing the following (in mM): 5.5 KCI, 160 NaCl, 1.2 MgCl2, 1.5 CaCl2, 10 glucose, and 10 Hepes-NaOH, pH 7.4. […] Fura-2 fluorescence intensity was measured every 3 seconds. […] NCX activity was evaluated as Ca2+ uptake through the reverse mode by switching the normal Krebs medium containing thapsigargi (1µM) to Na^+-deficient NMDG+ medium (Na^+-free) containing (in mM): 5.5 KCI, 147 N-Methyl glucamine, 1.2 MgCl2, 1.5 CaCl2, 10 glucose, and 10 Hepes-NaOH (pH 7.4). All the results are presented as percentage of cytosolic Ca^2+ concentration increase above basal values and expressed as mean± S.E.M.

NCX1 V117L = target: T2, NCX1 V117L (Canis lupus familiaris, UniProt P23685, V150L); assay: as above; format: cell-based; conditions: single mutation, functional exchanger
T2 construct: expressed in transfected cells
T2 sequence (P23685 33-970 V150L): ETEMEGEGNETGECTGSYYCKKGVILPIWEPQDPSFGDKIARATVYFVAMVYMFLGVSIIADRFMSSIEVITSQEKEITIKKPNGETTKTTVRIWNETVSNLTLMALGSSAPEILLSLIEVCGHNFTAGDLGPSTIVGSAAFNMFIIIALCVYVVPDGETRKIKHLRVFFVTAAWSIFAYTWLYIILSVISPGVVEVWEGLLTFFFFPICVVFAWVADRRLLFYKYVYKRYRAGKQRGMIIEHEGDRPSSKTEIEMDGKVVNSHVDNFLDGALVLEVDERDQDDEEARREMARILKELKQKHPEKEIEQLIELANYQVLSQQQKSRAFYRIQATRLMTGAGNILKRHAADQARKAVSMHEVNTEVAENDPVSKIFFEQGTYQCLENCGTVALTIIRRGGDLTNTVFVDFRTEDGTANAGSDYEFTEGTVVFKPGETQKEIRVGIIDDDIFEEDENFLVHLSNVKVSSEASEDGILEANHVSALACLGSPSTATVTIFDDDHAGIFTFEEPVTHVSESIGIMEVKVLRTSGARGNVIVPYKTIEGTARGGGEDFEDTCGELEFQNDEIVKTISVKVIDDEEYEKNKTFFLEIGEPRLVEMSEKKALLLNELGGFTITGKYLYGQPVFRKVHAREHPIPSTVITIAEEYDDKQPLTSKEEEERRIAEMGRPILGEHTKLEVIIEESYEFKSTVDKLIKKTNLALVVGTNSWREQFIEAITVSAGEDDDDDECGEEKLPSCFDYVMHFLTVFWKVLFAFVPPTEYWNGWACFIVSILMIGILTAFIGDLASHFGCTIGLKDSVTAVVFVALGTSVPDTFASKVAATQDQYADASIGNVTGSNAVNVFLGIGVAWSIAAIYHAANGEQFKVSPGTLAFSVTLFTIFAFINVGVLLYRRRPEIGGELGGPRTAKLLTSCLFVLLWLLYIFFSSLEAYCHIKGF
Protocol: as §1, §2, §3, §4

NCX1 L808F = target: T3, NCX1 L808F (Canis lupus familiaris, UniProt P23685, L840F); assay: as above; format: cell-based; conditions: single mutation, functional exchanger
T3 construct: expressed in transfected cells
T3 sequence (P23685 33-970 L840F): as the sequence (P23685 33-970 V150L) above, with L118V, L808F counted along it
Protocol: as §1, §2, §3, §4

[1] = tested on: ischemic volume after tMCAO; assay: Transient middle cerebral artery occlusion (tMCAO) cerebral ischemia model; format: in vivo, mice
Source text: For experimental stroke male wild-type C57BL of 2 months have been used. All mice were anesthetized with a gas containing 70 % N2O, 28% O2 e 2% sevoflurane).
Usually, after anesthesia an incision on the ventral neck is made and, under an operating stereo-microscope and with the help of microsurgery twizzers, the muscle is diverted until the common carotid artery (CCA). Then, through smoothly diversion, the CCA is isolated from the vague nerve and the jugulars vein. Analogously, the external carotid artery (ECA) and the internal carotid artery (ICA) are isolated as well.After the isolation of these vessels and the positioning of vascular microclips, a nylon filament (5-0, Ethilon, 11 mm length) is inserted into the internal carotid artery (ICA), at the level of bifurcation with the common carotid artery. The filament is pushed in cranial direction until is reached the bifurcation of the middle cerebral artery (MCA), whose flux is interrupted. After the insertion of the filament the wound is closed with a temporary suture and the mouse is let to awake. After 60 minutes the animal is re-anesthesized and the ischemia is interrupted through the filament rimotion from the vessel. The reduction in cerebral blood flow has been evaluated by means of a cerebral laser-Doppler system (Periflux, Sweden with software Perimed 1.30) that uses a probe fixed on the skull. The body temperature has been maintained constant by means of a homoeothermic blanket connected to a rectal probe. Few minutes after the end of the surgical procedure the mouse awakes and, on the nasis of the pain degree noticed, is decided for the administration of analgesic drugs. Neurounina-1 administration has been done intraperitoneally at different dosages, immediately before, 3 hours or 5 hours the ischemia onset. 24 hours after the surgical procedure, the animal is killed through cervical dislocation and the brain is removed from the skull and analyzed for the determination of the ischemic damage extension. In particular, by means of a vibratome, serial coronal brain sections of […] are obtained. These brain sections are treated with 2,3,5-triphenyl tetrazolium chloride (TTC), an organic compound that has the peculiarity of being oxidized and precipitated as formazan salt only from vital tissue. By contrast, the ischemic tissue, being not able to generate this reaction, remains white. […] The software used (Image Pro-plus 4.1) allows, then, to obtain the brain infarct volume from the value of the infarct areas obtained in close brain slices.Data obtained in this manner are then elaborated to obtain a percentage evaluation of the ischemic damage induced compared to the brain hemisphere […] to the ischemic lesion.

T1 sequence (P23685 33-970 N157G): as the sequence (P23685 33-970 V150L) above, with L118V, N125G counted along it

Question: How did the “sensitivity of NCX1 mutant N124G” value (NCX1 N124G) turn out when O=C1CN=C(c2ccccc2)c2cc([N+](=O)[O-])ccc2N1CN1CCCC1 [neurounina-1, 7-nitro-5-phenyl-1-(pyrrolidin-1-ylmethyl)-1H-benzo[e][1,4]diazepin-2(3H)-one] was run?
Answer: Its value is “insensible”.

Question: What about the “sensitivity of NCX1 mutant V117L” value (NCX1 V117L) of the same compound?
Answer: The value was “insensible”.

Question: And the “sensitivity of NCX1 mutant L808F” value (NCX1 L808F)?
Answer: Its value is “insensible”.

Question: What about the ischemic damage ([1]; administered just before tMCAO induction, 3 ng/kg, intraperitoneal) of the same compound?
Answer: Its ischemic damage is “significantly reduced ischemic damage”.

Question: And the “minimal dose with neuroprotective effect” value ([1]; five hours from tMCAO, intraperitoneal)?
Answer: Its value is 0.03 mg/kg.

Question: What about the neuroprotective effect ([1]; intraperitoneally 3 hours after tMCAO, dose-range 3 ng/kg to 30 µg/kg) of the same compound?
Answer: The neuroprotective effect was “still present”.

Question: And the ischemic volume ([1]; mice, intraperitoneal administration, tMCAO)?
Answer: The ischemic volume was “decreased the ischemic volume”.
